Experimental data taken from article PMC4763415, “Platinum (IV)-fatty acid conjugates overcome inherently and acquired Cisplatin resistant cancer cell lines: an in-vitro study” (BMC Cancer, 2016).
Values joined by “and” are separate entries in the source; they are usually repeats but may differ in a detail not shown here. Equal values may be shown once. Read-outs that look alike come from different tables or passages of the source.

What was measured:
[1] = tested on: A2780 (Cisplatin sensitive ovarian cancer cells); test: XTT cell proliferation assay, A2780; format: cell-based, human; settings: for IC50: XTT
Procedure: (§1) (2,3-bis-(2-methoxy-4-nitro-5-sulfophenyl)-2H-tetrazolium-5-carboxanilide) (XTT) assay was used as previously described to evaluate the cytotoxicity of the different Cisplatin derivatives. Briefly, cells (1.5 × 10^4) were plated in RPMI 1640 medium using 96-well plates for 24 h, and then treated for an additional 72 h with the different Cisplatin derivatives. A total of 50 μl of XTT solution were added to each well and incubated for 3 h at 37 °C. The optical density was measured by a multi-well plate spectrophotometer at 450 nanometers with a references’ wavelength of 630 nm. The concentrations inhibiting cell proliferation by 50 % (IC50s) of all tested derivatives were calculated. The experiment was performed in triplicate, and standard deviations were also calculated.

[2] = tested on: cleaved PARP in A2780cisR cells; test: PathScan cleaved PARP (Asp214) sandwich ELISA, A2780cisR; format: cell-based, human; settings: 30 h
Procedure: Cell lysates prepared from treated ovarian cancer cells (30 h) were used for quantitative measurement of cleaved PARP according to manufacturer’s instructions (Cell signaling technology, USA). In our experiments, 20 μg of total lysate proteins from each sample were utilized.

[3] = tested on: human embryonic kidney cell line 293 T (HEK293T); test: XTT cell proliferation assay, HEK293T; format: cell-based; settings: for IC50: Table 2, XTT, non-cancerous cells; for selectivity: potency against A2780 compared to HEK293T: ratio of XTT IC50s
Procedure: as §1

[4] = tested on: human embryonic kidney cell line 293A (HEK293A); test: XTT cell proliferation assay, HEK293A; format: cell-based; settings: for IC50: Table 2, XTT, non-cancerous cells; for selectivity: potency against A2780 compared to HEK293A: ratio of XTT IC50s
Procedure: as §1

A2780 cells = test: Clonigenicity assay (soft agar), A2780; format: cell-based, human; settings: for clonigenicity IC50s values lower than Cisplatin: ovarian cancer cell lines tested (A2780, A2780cisR); for IC50: soft agar, 2 weeks, read-out: IC50 of clonigenicity inhibition A2780
Procedure: (§2) Clonigenicity assay was performed as previously describe. Briefly, cells (1 × 10^4) in 1 ml RPMI 10 % FBS medium were diluted in 1 ml of 0.6 % agar to give a final agar concentration of 0.3 % agar. The cells-agar mixture was poured over a hardened agar base in wells of 12-well plates and allowed to solidify. Once the top layer solidified, 1 ml of medium containing different treatments was placed on top to keep the agar moist. The cells were grown at 37 °C in a 5 % CO2 humidified atmosphere until colonies were visible (2 weeks). The plates were stained for 4 h with 5 mg/ml 3-(4,5-dimethylthiazol-2-yl)-2,5-diphenyltetrazolium bromide (MTT), and the dye was extracted with 1 ml solubilization buffer (20 % SDS, 50 % N,N-dimethyl-formamide, 25 mM HCL) for 24 h. The optical density was measured at 570 nm wavelength with a reference wavelength of 630 nm.

[5] = tested on: PARP cleavage in A2780cisR cells; test: Apoptosis assay: PARP cleavage by immunoblot, A2780cisR; format: cell-based, human; settings: for concentration causing significant PARP cleavage, A2780cisR: 30 h treatment
Procedure: (§3) To monitor apoptosis potential of Cisplatin derivatives we followed cleavage of poly ADP ribose polymerase (PARP) protein [18]. Briefly, cells (2 × 10^5 cells/ml) were treated with Cisplatin derivatives for the indicated time. Cells were collected, washed once with cold PBS, and lysed in buffer [10 mMTris-HCl (pH 7.4), 100 mMNaCl, 1 mM EDTA, 1 mM EGTA, 1 mM NaF, 20 mM Na4P2O7, 2 mM Na3VO4, 1 % Triton x-100, 10 % Glycerol, 0.1 % sodium dodecyl sulfate (SDS), 0.5 % deoxycholate, 1 mM phenylmethylsulfonyl fluoride (PMSF), for 30 min at 4 °C. Cell lysate supernatants (40 μg protein/each) were resolved on 8 % SDS-polyacrylamide gel electrophoresis, transferred to nitrocellulose membranes, and analyzed by immune-blotting with an anti-cleaved PARP antibody (Cell signaling technology, USA ). Anti α-tubulin antibody (Santa Cruz Co., CA, USA) was used as a loading control.

A2780cisR cells = test: Clonigenicity assay (soft agar), A2780cisR; format: cell-based, human; settings: 2 weeks, read-out: IC50 of clonigenicity inhibition A2780cisR
Procedure: as §2

[6] = tested on: A2780cisR (Cisplatin resistant ovarian cancer cells); test: XTT cell proliferation assay, A2780cisR; format: cell-based, human; settings: for IC50: Table 1, XTT, 72 h treatment, read-out: IC50 anti-proliferative activity A2780cisR; for increased anti-proliferative potency compared to Cisplatin, A2780cisR: ratio of IC50s vs Cisplatin
Procedure: as §1

[7] = tested on: human foreskin fibroblast cells (HFF); test: XTT cell proliferation assay, HFF; format: cell-based; settings: for IC50: Table 2, XTT, non-cancerous cells; for ratio of IC50s against none cancerous cells (HFF) to the cancerous cell line (A2780): ratio of XTT IC50s
Procedure: as §1

[8] = tested on: K562; chronic myelogenous leukemia (CML) cell lines; test: XTT cell proliferation assay, K562; format: cell-based; settings: for IC50: Table 1, XTT, 72 h treatment, read-out: IC50 anti-proliferative activity K562; for enhanced anti-CML activity compared to Cisplatin, K562: ratio of IC50s vs Cisplatin
Procedure: as §1

[9] = tested on: PARP cleavage in A2780 cells; test: Apoptosis assay: PARP cleavage by immunoblot, A2780; format: cell-based, human; settings: 30 h treatment
Procedure: as §3

[10] = Table 1, 72 h treatment, read-out: IC50 anti-proliferative activity A2780

Row | clonigenicity IC50s values lower than Cisplatin (A2780 cells) | IC50 (A2780 cells) [µM] | IC50 [8] [µM] | Compound | IC50 [1, 10] [µM] | IC50 ([1]; Table 2, read-out: IC50 A2780) [µM] | increase in levels of cleaved PARP compared to untreated sample ([2]; 1 microM) [fold] | increase in levels of cleaved PARP compared to untreated sample ([2]; 5 microM) [fold] | increase in levels of cleaved PARP compared to untreated sample ([2]; 25 microM) [fold] | IC50 [3] [µM] | selectivity: potency against A2780 compared to HEK293T [3] | IC50 [4] [µM] | selectivity: potency against A2780 compared to HEK293A [4] | concentration causing significant PARP cleavage, A2780cisR [5] | IC50 (A2780cisR cells) [µM] | IC50 [6] [µM] | increased anti-proliferative potency compared to Cisplatin, A2780cisR [6] | IC50 [7] [µM] | ratio of IC50s against none cancerous cells (HFF) to the cancerous cell line (A2780) [7] | enhanced anti-CML activity compared to Cisplatin, K562 [8] [folds] | concentration causing significant PARP cleavage, A2780 [9] | also measured
1 | 20–30 folds | 0.01 | 0.7 | CCCCCCCC(=O)[O][Pt]([NH2])([NH2])([Cl])([Cl])[O]C(=O)CCCCCCC [RJY13, Cis, cis, trans-[diamminedichloro-bis-octanoatoplatinum (IV)]] | 0.08 | 0.08 | 4 | 34 | 37 | 0.5 | about 10 fold | 0.7 | about 10 fold | 5 µM | 0.01 | 0.57 | 33 fold | 2.4 | 30 | 7 | 5 µM | increased anti-proliferative potency compared to Cisplatin, A2780 ([1]; ratio of IC50s vs Cisplatin): 16 fold
2 |  | 0.07 | 9.4 | CCCCCCCC/C=C\CCCCCCCC(=O)[O][Pt]([NH2])([NH2])([Cl])([Cl])[O]C(=O)CCCCCCC/C=C\CCCCCCCC [RJY3] | > 20 |  |  |  |  |  |  |  |  |  |  | 15 |  |  |  |  |  | 
3 | 20–30 folds | 0.015 | 1.3 | CCCCCCCCCCCC(=O)[O][Pt]([NH2])([NH2])([Cl])([Cl])[O]C(=O)CCCCCCCCCCC [RJY6, Cis, cis, trans-[diamminedichloro-bis-lauratoplatinum(IV)]] | 0.7 | 0.7 | 2 | 3 | 21 | 11.8 | 16 fold | 17.3 | 24 fold | above 25 microM | 0.013 | 3.3 | 5-6 fold | 82 | 117 and 117.2 | 4 | above 25 microM | 
4 |  |  |  | N.N.O=C([O-])C1(C(=O)[O-])CCC1.[Pt+2] [Carboplatin, reference compound] | 16.8 | 16.8 |  |  |  | 45 |  | 105 |  |  |  | 109 |  |  |  |  |  | 

Row | Compound | clonigenicity IC50s values lower than Cisplatin (A2780 cells) | IC50 (A2780 cells) [µM] | IC50 [8] [µM] | IC50 [1, 10] [µM] | IC50 ([1]; Table 2, read-out: IC50 A2780) [µM] | increase in levels of cleaved PARP compared to untreated sample ([2]; 1 microM) [fold] | increase in levels of cleaved PARP compared to untreated sample ([2]; 5 microM) [fold] | increase in levels of cleaved PARP compared to untreated sample ([2]; 25 microM) [fold] | IC50 [3] [µM] | selectivity: potency against A2780 compared to HEK293T [3] | IC50 [4] [µM] | selectivity: potency against A2780 compared to HEK293A [4] | concentration causing significant PARP cleavage, A2780cisR [5] | IC50 (A2780cisR cells) [µM] | IC50 [6] [µM] | increased anti-proliferative potency compared to Cisplatin, A2780cisR [6] | IC50 [7] [µM] | ratio of IC50s against none cancerous cells (HFF) to the cancerous cell line (A2780) [7] | enhanced anti-CML activity compared to Cisplatin, K562 [8] [folds] | concentration causing significant PARP cleavage, A2780 [9] | also measured
5 | O=C1[O][Pt]2([NH][C@@H]3CCCC[C@H]3[NH]2)[O]C1=O [Oxaliplatin, reference compound] |  | 0.18 | 3.2 | 12.7 |  |  |  |  |  |  |  |  |  | 1.6 | 15.5 |  |  |  |  |  | 
6 | N.N.[Cl][Pt][Cl] [Cisplatin, cis-Diamminedichloroplatinum (II)] |  | 2.3 | 5.2 | 1.3 | 1.3 |  |  | 2.4 | 3.2 |  | 16.3 |  |  | 4.2 | 19.2 |  | 84 | 63 |  | 25 µM | PARP cleavage in A2780cisR ([5]; 30 h, concentrations below 100 microM): very minimal cleavage of PARP
